Legend:
[1] = system: anesthetized dogs; experiment: anesthetized dog infusion test (MAP, RBF, RVR, HR); format: in vivo; conditions: for % change HR (heart rate) / % change MAP (mean arterial blood pressure) / % change RBF (renal blood flow) / % change RVR (renal vascular resistance): 1 dog
From the text: In the anesthetized dog protocol discussed above this compound gave the following data: […]

[2] = secondary test
[3] = system: spontaneously hypertensive rat; conditions: in vivo
[4] = system: toad bladder; conditions: toad bladder test
[5] = 300 μg/kg/min, anesthetized dog, cumulative effects

## 4-(4-hydroxyphenyl)-butyryl-L-propyl-D,L-α-methylphenylalanyl-glycyl-L-proline [Example 2]
[1]; infusion 3 μg/kg/min
  % change HR (heart rate): 6%
  % change MAP (mean arterial blood pressure): -5%
  % change RBF (renal blood flow): 17%
  % change RVR (renal vascular resistance): -18%
[1]; infusion 30 μg/kg/min
  % change HR (heart rate): 10%
  % change MAP (mean arterial blood pressure): -9%
  % change RBF (renal blood flow): 16%
  % change RVR (renal vascular resistance): -21%
[1]; infusion 300 μg/kg/min
  % change HR (heart rate): 6%
  % change MAP (mean arterial blood pressure): -6%
  % change RBF (renal blood flow): 14%
  % change RVR (renal vascular resistance): -17%
[1]; measured after the normal period of the test, increased from 127 ml/min
  renal blood flow, cumulative effect: 162 mL/min
[1]; measured after the normal period of the test, predrug level 140 BPM
  cardiac rate (HR), cumulative effect: 105 BPM
[2]
  ED15: 1.9 µg/kg
[3]
  activity in spontaneously hypertensive rat protocol: not active
  diuresis in spontaneously hypertensive rat protocol: slight water diuresis
[4]
  reversal of antidiuretic hormone activity: inactive

## NCCc1ccc(O)c(O)c1 [Dopamine, reference compound]
[1]; dog test procedure
  ED15: about 3 mcg/kg/min
[1]; infusion 3 μg/kg/min
  % change HR (heart rate): 2%
  % change MAP (mean arterial blood pressure): -16%
  % change RBF (renal blood flow): 28%
  % change RVR (renal vascular resistance): -34%
[2]
  ED15: 3.5 µg/kg

## N-4-(4-hydroxyphenyl)-butyryl-L-prolyl-D-phenylalanyl-glycyl-L-proline [Example 3]
[1]; [5]
  cumulative effect HR: -8
  cumulative effect MAP: 0
  cumulative effect RBF: +22
  cumulative effect RVR: -18
